Source: ChEMBL document CHEMBL1201862, “PubChem BioAssay data set” (2004)
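Values below derive from 48-hour exposures of cells grown in 96-well plates, with endpoints linearly interpolated between the two concentrations bracketing the appropriate inhibition level. Here, GI50 denotes the concentration required for 50% inhibition of growth.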 Calls of active or inactive are those of the source. No stated cut-off is given here; in the data, active = GI50 up to about 1.1 µM and inactive = higher.

Experiments:
Experiment in all cases: NCI anticancer screen, dose series, 48 h
A498 = tested on: A498
SK-MEL-2 = tested on: SK-MEL-2
MOLT-4 = tested on: MOLT-4
OVCAR-3 = tested on: OVCAR-3
SK-OV-3 = tested on: SK-OV-3
M14 = tested on: M14
786-0 = tested on: 786-0
T47D = tested on: T47D
SK-MEL-5 = tested on: SK-MEL-5
UO-31 = tested on: UO-31
Malme-3M = tested on: Malme-3M
SNB-19 = tested on: SNB-19
COLO 205 = tested on: COLO 205
CAKI-1 = tested on: CAKI-1
Hs-578T = tested on: Hs-578T
RXF 393 = tested on: RXF 393
MDA-MB-435 = tested on: MDA-MB-435
MDA-N = tested on: MDA-N
NCI/ADR-RES = tested on: NCI/ADR-RES
K562 = tested on: K562
NCI-H226 = tested on: NCI-H226
U-251 = tested on: U-251
ACHN = tested on: ACHN
OVCAR-4 = tested on: OVCAR-4
SF-295 = tested on: SF-295
HCT-15 = tested on: HCT-15
SN12C = tested on: SN12C
NCI-H23 = tested on: NCI-H23
MCF7 = tested on: MCF7
SNB-75 = tested on: SNB-75
SK-MEL-28 = tested on: SK-MEL-28
EKVX = tested on: EKVX
UACC-257 = tested on: UACC-257
HL-60 = tested on: HL-60
SF-268 = tested on: SF-268
OVCAR-5 = tested on: OVCAR-5
RPMI-8226 = tested on: RPMI-8226
KM12 = tested on: KM12
HOP-92 = tested on: HOP-92
HCC 2998 = tested on: HCC 2998
OVCAR-8 = tested on: OVCAR-8
PC-3 = tested on: PC-3
TK-10 = tested on: TK-10
DU-145 = tested on: DU-145
BT-549 = tested on: BT-549
SW-620 = tested on: SW-620
LOX IMVI = tested on: LOX IMVI
HCT-116 = tested on: HCT-116
MDA-MB-231 = tested on: MDA-MB-231
NCI-H522 = tested on: NCI-H522
A549 = tested on: A549
HOP-62 = tested on: HOP-62
SR = tested on: SR
UACC-62 = tested on: UACC-62
HT-29 = tested on: HT-29

CC(=O)Oc1ccc2c3c1[C@H]1O[C@H]1c1cccc(c1-3)[C@@H]1O[C@H]21
GI50 (A498): 11.9 µM (inactive) | GI50 (SK-MEL-2): 9.55 µM (inactive) | GI50 (MOLT-4): 18.5 µM (inactive) | GI50 (OVCAR-3): 3.18 µM (inactive) | GI50 (SK-OV-3): 14.6 µM (inactive) | GI50 (M14): 4.81 µM (inactive) | GI50 (786-0): 2.21 µM (inactive) | GI50 (T47D): 2.09 µM (inactive) | GI50 (SK-MEL-5): 4.25 µM (inactive) | GI50 (UO-31): 3.74 µM (inactive) | GI50 (Malme-3M): 2.72 µM (inactive) | GI50 (SNB-19): 15.8 µM (inactive) | GI50 (COLO 205): 10.4 µM (inactive) | GI50 (CAKI-1): 3.22 µM (inactive) | GI50 (Hs-578T): 5.58 µM (inactive) | GI50 (RXF 393): 409 nM (active) | GI50 (MDA-MB-435): 2.04 µM (inactive) | GI50 (MDA-N): 6.87 µM (inactive) | GI50 (NCI/ADR-RES): 10 µM (inactive) | GI50 (K562): 5.02 µM (inactive) | GI50 (NCI-H226): 21.4 µM (inactive) | GI50 (U-251): 4.99 µM (inactive) | GI50 (ACHN): 18.3 µM (inactive) | GI50 (OVCAR-4): 7.23 µM (inactive) | GI50 (SF-295): 10 µM (inactive) | GI50 (HCT-15): 5 µM | GI50 (SN12C): 2.69 µM (inactive) | GI50 (NCI-H23): 4.92 µM (inactive) | GI50 (MCF7): 18.4 µM (inactive) | GI50 (SNB-75): 4.13 µM (inactive) | GI50 (SK-MEL-28): 8.15 µM (inactive) | GI50 (EKVX): 16.5 µM (inactive) | GI50 (UACC-257): 8.22 µM (inactive) | GI50 (HL-60): 1.82 µM (inactive) | GI50 (SF-268): 5.62 µM (inactive) | GI50 (OVCAR-5): 14.8 µM (inactive) | GI50 (RPMI-8226): 3.22 µM (inactive) | GI50 (KM12): 12.6 µM (inactive) | GI50 (HOP-92): 9.68 µM (inactive) | GI50 (HCC 2998): 7.78 µM (inactive) | GI50 (OVCAR-8): 4.22 µM (inactive) | GI50 (PC-3): 13.5 µM (inactive) | GI50 (TK-10): 13.9 µM (inactive) | GI50 (DU-145): 7.83 µM (inactive) | GI50 (BT-549): 8.97 µM (inactive) | GI50 (SW-620): 2.09 µM (inactive) | GI50 (LOX IMVI): 1.81 µM (inactive) | GI50 (HCT-116): 11.2 µM (inactive) | GI50 (MDA-MB-231): 12.8 µM (inactive) | GI50 (NCI-H522): 1.9 µM (inactive) | GI50 (A549): 7.33 µM (inactive) | GI50 (HOP-62): 5.19 µM (inactive) | GI50 (SR): 10.9 µM (inactive) | GI50 (UACC-62): 8 µM (inactive) | GI50 (HT-29): 7.18 µM (inactive)
